Measured values taken from US20140271680A1, “METHODS AND PHARMACEUTICAL COMPOSITIONS FOR TREATMENT OF PULMONARY HYPERTENSION” (UNIVERSITE PARIS-EST CRETEIL VAL DE MARNE, priority 2011, published 2014).

Legend:
wild-type (WT) mice = assay: hypoxic pulmonary hypertension in wild-type mice (chronic hypoxia 9% O2); type: in vivo; settings: Maraviroc 200 mg/kg/day
[1] = tested on: human pulmonary-artery smooth muscle cells (PA-SMCs); assay: CCL5-stimulated proliferation of human pulmonary-artery smooth muscle cells (MTT assay); type: cell-based; settings: 48 h with CCL5 and Maraviroc, FIG. 4
Protocol: The effects of Maraviroc on cell proliferation was investigated in primary cultures of human pulmonary-artery smooth muscle cells (PA-SMCs) collected from lung tissue samples of patients undergoing lung resection surgery. Cell proliferation was assessed by using the tetrazolium salt (MTT) assay (Sigma, Lyon, France) during conditions of stimulation with the CCR5 ligand CCL5. Human PA-SMCs were seeded onto 24-well for 48 h. PA-SMCs were synchronized for 48 h in media without serum prior cell proliferation stimulation in presence of CCL5 or CCL5 and Maraviroc. 48 hours after, MTT (100 μg/mL) was added and incubated for 4 h. The media was removed and crystals formed were dissolved in […] of dimethylsulfoxide (DMSO, Sigma) and the mixture was shaken for a few minutes to achieve complete dissolution. Aliquots (200 μL) of the resulting solutions were transferred to 96-well plates and absorbance was recorded at 520 nm using the Microplate Spectrophotometer System.

[2] = tested on: CCR5 knock-in (KICCR5) mice; assay: hypoxic pulmonary hypertension in CCR5 knock-in mice (chronic hypoxia 9% O2); type: in vivo; settings: Maraviroc 200 mg/kg/day
From the text: To assess the inhibitory effects of the CCR5 antagonist Maraviroc on development of pulmonary hypertension in mice, the inventors used CCR5 knock-in mice in which the murine CCR5 gene was replaced by the human CCR5 gene. CCR5 knock-in mice were used in these experiments because Maraviroc binds to the human CCR5 but not to the murine CCR5 protein.
Male mice (12 months old), were exposed to chronic hypoxia (9% O2) in a ventilated chamber (Biospherix, New York, N.Y.). Mice were anesthetized with ketamine (60 mg/Kg) and xylazine (10 mg/Kg) intraperitoneally. A 26-gauge needle connected to a pressure transducer was inserted into the right ventricle, and right ventricular systolic pressure (RVSP) was recorded. After the assessment of hemodynamic parameters, all mice were sacrificed by cardiac puncture and exsanguinations. The heart was dissected out and weighed for calculation of the Fulton index (ratio of right ventricular free wall weight over the sum of the septum plus left ventricular free wall weights: RV/LV+S). The left lung was inflated and fixed with formalin buffer for assessments of pulmonary vessel muscularization and of PA-SMC proliferation using Ki67 immunostaining

Cc1nnc(C(C)C)n1[C@@H]1C[C@H]2CC[C@@H](C1)N2CC[C@H](NC(=O)C1CCC(F)(F)CC1)c1ccccc1 [Maraviroc, 4,4-difluoro-N-{(1S)-3-[3-(3-isopropyl-5-methyl-4H-1,2,4-triazol-4-yl)-8-azabicyclo[3.2.1]oct-8-yl]-1-phenylpropyl}cyclohexanecarboxamide]
Right ventricular systolic pressure (RVSP) (wild-type (WT) mice; FIG. 3A): not in WT mice | proliferative cells detected by ki67 immunostaining (wild-type (WT) mice; FIG. 3D): not in WT mice | Proliferation of human pulmonary artery smooth muscle cells stimulated by the CCR5 ligand CCL5 [1]: significantly reduced | Right ventricular systolic pressure (RVSP) ([2]; FIG. 3A): reduction | Fulton index ([2]; FIG. 3B): reduction | % of muscularized vessels ([2]; FIG. 3C): reduction | proliferative cells detected by ki67 immunostaining ([2]; FIG. 3D): reduction
